Experimental data published in DBAASP.
In brackets after ≈: the same amount, converted by molar mass. Each block holds one compound with its values, some of them ahead of it.

Experiments:
Assay in all cases: ≥ marks a high value that may be exact or a test limit, other limits are often not marked, values filed in µg/mL are converted to µM
[1] = test system: Bacillus subtilis CGMCC 1.3376
[2] = test system: Escherichia coli CGMCC 1.8732
[3] = test system: Klebsiella pneumoniae CGMCC 1.1736
[4] = test system: Pseudomonas aeruginosa CGMCC 1.2421
[5] = test system: Staphylococcus aureus CGMCC 1.8721
[6] = test system: Staphylococcus epidermidis CGMCC 1.4260
[7] = test system: Candida albicans NCYC 1467
[8] = test system: Enterococcus faecalis NCTC 12697
[9] = test system: Escherichia coli NCTC 10418
[10] = test system: Klebsiella pneumoniae ATCC 43816
[11] = test system: Pseudomonas aeruginosa ATCC 27853
[12] = test system: Staphylococcus aureus NCTC 10788
[13] = test system: Staphylococcus aureus NCTC 12493
[14] = test system: Bacillus cereus ATCC 14579
[15] = test system: Bacillus subtilis ATCC 23857
[16] = test system: Candida albicans ATCC 90028
[17] = test system: Cryptococcus neoformans ATCC 28957
[18] = test system: Escherichia coli ATCC 25922
[19] = test system: Fusarium oxysporum f.sp. vasinfectum
Fusarium oxysporum = test system: Fusarium oxysporum
Fusarium solani = test system: Fusarium solani
[20] = test system: Pectobacterium carotovorum
[21] = test system: Pseudomonas syringae pv. tabaci
Ramulariopsis gossypii = test system: Ramulariopsis gossypii
Rhizoctonia solani = test system: Rhizoctonia solani
[22] = test system: Staphylococcus aureus ATCC 25923
Trichoderma asperellum = test system: Trichoderma asperellum
[23] = test system: Xanthomonas campestris pv. citri
[24] = test system: Acinetobacter baumannii KCTC 2508
[25] = test system: Klebsiella pneumoniae KCTC 2208

MIC [1]: 3.13 µM (≈ 7.75 µg/mL)
MIC [2]: 12.5 µM (≈ 31 µg/mL)
MIC [3]: 12.5 µM (≈ 31 µg/mL)
MIC [4]: 12.5 µM (≈ 31 µg/mL)
MIC [5]: 3.13 µM (≈ 7.75 µg/mL)
MIC [6]: 3.13 µM (≈ 7.75 µg/mL)
Structure (SMILES): CC[C@H](C)[C@H](NC(=O)[C@H](C)N)C(=O)NCC(=O)N[C@@H](CO)C(=O)N[C@H](C(=O)N[C@@H](CC(C)C)C(=O)NCC(=O)N[C@@H](CCCN=C(N)N)C(=O)N[C@@H](CC(C)C)C(=O)N[C@@H](C)C(=O)N[C@@H](CCCCN)C(=O)NCC(=O)N[C@@H](CC(C)C)C(=O)N1CCC[C@H]1C(=O)N[C@H](C(=O)N[C@@H](CC(C)C)C(=O)N[C@H](C(=O)N[C@@H](CO)C(=O)N[C@@H](Cc1c[nH]c2ccccc12)C(=O)N[C@H](C(=O)N[C@@H](CCCCN)C(=O)N[C@@H](CC(N)=O)C(=O)N[C@@H](CCCN=C(N)N)C(N)=O)[C@@H](C)CC)[C@@H](C)CC)[C@@H](C)O)[C@@H](C)CC [AIGSILGRLAKGLPTLISWIKNR]

MIC [7]: ≥ 32 µM
MIC [8]: ≥ 256 µM
MIC [9]: ≥ 64 µM
MIC [10]: ≥ 128 µM
MIC [11]: 128 µM (≈ 183 µg/mL)
MIC [12]: ≥ 64 µM
MIC [13]: ≥ 128 µM
Structure (SMILES): CC(C)C[C@H](NC(=O)[C@H](C)N)C(=O)N[C@@H](Cc1c[nH]c2ccccc12)C(=O)N[C@@H](CCCCN)C(=O)N[C@@H](CO)C(=O)N[C@@H](CC(C)C)C(=O)N[C@@H](CC(C)C)C(=O)N[C@@H](CCCCN)C(=O)N[C@@H](CC(N)=O)C(=O)N[C@H](C(=O)NCC(=O)N[C@@H](CCCCN)C(=O)N[C@@H](C)C(N)=O)C(C)C [ALWKSLLKNVGKA]

MIC [14]: 1 µM (≈ 1.93 µg/mL)
MIC [15]: 1 µM (≈ 1.93 µg/mL)
MIC [16]: 1 µM (≈ 1.93 µg/mL)
MIC [17]: 1 µM (≈ 1.93 µg/mL)
MIC [18]: 0.5 µM (≈ 0.966 µg/mL)
MIC [19]: 0.5 µM (≈ 0.966 µg/mL)
MIC (Fusarium oxysporum): 0.5 µM (≈ 0.966 µg/mL)
MIC (Fusarium solani): 0.5 µM (≈ 0.966 µg/mL)
MIC [20]: 0.5 µM (≈ 0.966 µg/mL)
MIC [11]: 3.33 µM (≈ 6.43 µg/mL)
MIC [21]: 1 µM (≈ 1.93 µg/mL)
MIC (Ramulariopsis gossypii): 0.5 µM (≈ 0.966 µg/mL)
MIC (Rhizoctonia solani): 1 µM (≈ 1.93 µg/mL)
MIC [22]: 0.83 µM (≈ 1.6 µg/mL)
MIC (Trichoderma asperellum): 1 µM (≈ 1.93 µg/mL)
MIC [23]: 1 µM (≈ 1.93 µg/mL)
Structure (SMILES): CC[C@H](C)[C@H](NC(=O)[C@@H](NC(=O)[C@H](Cc1c[nH]c2ccccc12)NC(=O)[C@H](CCCCN)NC(=O)[C@H](Cc1ccccc1)NC(=O)[C@@H](NC(=O)[C@H](CCCCN)NC(=O)[C@@H](NC(=O)[C@H](CC(C)C)NC(=O)[C@H](CCCCN)NC(=O)[C@H](CCCN=C(N)N)NC(=O)CNC(=O)[C@H](CC(C)C)NC(=O)[C@H](CCCCN)NC(=O)[C@H](Cc1ccccc1)NC(=O)CN)C(C)C)C(C)C)[C@@H](C)CC)C(N)=O [GFKLGRKLVKVFKWII]

MIC [14]: 13.3 µM (≈ 32.8 µg/mL)
MIC [15]: 4 µM (≈ 9.86 µg/mL)
MIC [16]: 1 µM (≈ 2.46 µg/mL)
MIC [17]: 1 µM (≈ 2.46 µg/mL)
MIC [18]: 10.7 µM (≈ 26.3 µg/mL)
MIC [19]: 0.83 µM (≈ 2.05 µg/mL)
MIC (Fusarium oxysporum): 2 µM (≈ 4.93 µg/mL)
MIC (Fusarium solani): 1 µM (≈ 2.46 µg/mL)
MIC [20]: 16 µM (≈ 39.4 µg/mL)
MIC [11]: 16 µM (≈ 39.4 µg/mL)
MIC [21]: 4 µM (≈ 9.86 µg/mL)
MIC (Ramulariopsis gossypii): 0.83 µM (≈ 2.05 µg/mL)
MIC (Rhizoctonia solani): 1 µM (≈ 2.46 µg/mL)
MIC [22]: 8 µM (≈ 19.7 µg/mL)
MIC (Trichoderma asperellum): 1 µM (≈ 2.46 µg/mL)
MIC [23]: 16 µM (≈ 39.4 µg/mL)
Structure (SMILES): CC[C@H](C)[C@H](NC(=O)[C@H](CCCCN)NC(=O)CN)C(=O)N[C@@H](CC(C)C)C(=O)N[C@@H](CCCCN)C(=O)N[C@@H](Cc1ccc(O)cc1)C(=O)N[C@@H](CC(C)C)C(=O)N[C@@H](CC(C)C)C(=O)N[C@@H](Cc1ccc(O)cc1)C(=O)N[C@@H](CC(C)C)C(=O)N[C@@H](CC(C)C)C(=O)N[C@@H](CCCN=C(N)N)C(=O)N[C@@H](CCCCN)C(=O)N[C@@H](Cc1ccc(O)cc1)C(=O)N[C@@H](C)C(=O)N[C@@H](CC(N)=O)C(=O)N[C@@H](CC(C)C)C(=O)N[C@H](C(=O)N[C@H](C(=O)N[C@@H](CCCN=C(N)N)C(N)=O)[C@@H](C)CC)[C@@H](C)CC [GKILKYLLYLLRKYANLIIR]

MIC [24]: 4 µM (≈ 11.4 µg/mL)
MIC [25]: 2 µM (≈ 5.71 µg/mL)
MIC [11]: 8 µM (≈ 22.9 µg/mL)
Structure (SMILES): CC[C@H](C)[C@H](N)C(=O)N[C@@H](C)C(=O)N[C@@H](CCCN=C(N)N)C(=O)N[C@@H](CCCN=C(N)N)C(=O)N[C@@H](C)C(=O)N[C@@H](CC(C)C)C(=O)N[C@@H](CCCCN)C(=O)N[C@@H](CCCCN)C(=O)N[C@@H](C)C(=O)N[C@@H](CCCCN)C(=O)N[C@@H](CCCN=C(N)N)C(=O)N[C@@H](C)C(=O)N[C@@H](C)C(=O)N[C@@H](Cc1cnc[nH]1)C(=O)N[C@@H](CCCCN)C(=O)N[C@H](C(=O)N1CCC[C@H]1C(=O)N[C@@H](C)C(=O)N[C@@H](C)C(=O)N[C@@H](CCCCN)C(=O)N[C@@H](CCCCN)C(=O)N[C@@H](Cc1ccccc1)C(=O)N[C@@H](C)C(=O)N[C@@H](CCCN=C(N)N)C(=O)N[C@@H](CCCN=C(N)N)C(N)=O)[C@@H](C)CC [IARRALKKAKRAAHKIPAAKKFARR]

MIC [24]: ≥ 32 µM
MIC [25]: 8 µM (≈ 23.5 µg/mL)
MIC [11]: 2 µM (≈ 5.86 µg/mL)
Structure (SMILES): CC[C@H](C)[C@H](N)C(=O)N[C@@H](C)C(=O)N[C@@H](CCCN=C(N)N)C(=O)N[C@@H](CCCN=C(N)N)C(=O)N[C@@H](C)C(=O)N[C@@H](CC(C)C)C(=O)N[C@@H](CCCCN)C(=O)N[C@@H](CCCCN)C(=O)N[C@@H](C)C(=O)N[C@@H](CCCCN)C(=O)N[C@@H](CCCN=C(N)N)C(=O)N[C@@H](C)C(=O)N[C@@H](C)C(=O)N[C@@H](Cc1cnc[nH]1)C(=O)N[C@@H](CCCCN)C(=O)N[C@H](C(=O)N1CCC[C@H]1C(=O)N[C@@H](CCC(N)=O)C(=O)N[C@@H](CS)C(=O)N[C@@H](CCCCN)C(=O)N[C@@H](CCCCN)C(=O)N[C@@H](Cc1ccccc1)C(=O)NCC(=O)N[C@@H](CCCN=C(N)N)C(=O)N[C@@H](CCCN=C(N)N)C(N)=O)[C@@H](C)CC [IARRALKKAKRAAHKIPQCKKFGRR]

MIC [1]: 6.25 µM (≈ 15.6 µg/mL)
MIC [2]: 25 µM (≈ 62.3 µg/mL)
MIC [3]: 25 µM (≈ 62.3 µg/mL)
MIC [4]: 12.5 µM (≈ 31.2 µg/mL)
MIC [5]: ≥ 100 µM
MIC [6]: 6.25 µM (≈ 15.6 µg/mL)
Structure (SMILES): CC[C@H](C)[C@H](NC(=O)[C@H](CO)NC(=O)CNC(=O)[C@@H](NC(=O)[C@@H](N)CCCN=C(N)N)[C@@H](C)CC)C(=O)N[C@@H](CC(C)C)C(=O)NCC(=O)N[C@@H](C)C(=O)N[C@@H](CC(C)C)C(=O)N[C@@H](C)C(=O)N[C@@H](CCCCN)C(=O)NCC(=O)N[C@@H](CC(C)C)C(=O)N1CCC[C@H]1C(=O)N[C@H](C(=O)N[C@@H](CC(C)C)C(=O)N[C@@H](CCCCN)C(=O)N[C@@H](CO)C(=O)N[C@@H](Cc1c[nH]c2ccccc12)C(=O)N[C@H](C(=O)N[C@@H](CCCCN)C(=O)N[C@@H](CC(N)=O)C(=O)N[C@@H](CCCN=C(N)N)C(N)=O)[C@@H](C)CC)[C@@H](C)O [RIGSILGALAKGLPTLKSWIKNR]
